pIC50: −log10 of the molar value.
Experiments:
[1] = test system: MMP1 expression by synovial fibroblasts; test: 'MMP assay': complex trigger induced MMP1 expression by RASFs, compound testing; format: cell-based; details: Homo sapiens, Fibroblast, 48 hrs
Protocol: A 384-well format ELISA for measurement of MMP1 is developed. Various primary antibodies are tested, as well as various ELISA protocols. The following protocol is developed and validated to measure MMP1 levels in SF supernatant in 384 well plates: white Lumitrac 600 384 well plates (Greiner) are coated with 2 μg/mL anti-MMP1 antibody MAB1346 (Chemicon). The antibody is diluted in buffer 40 (1.21 g Tris base (Sigma), 0.58 g NaCl (Calbiochem) and 5 mL 10% NaN3 (Sigma) in 1 L milliQ water and adjusted to pH 8.5). After overnight incubation at 4° C., plates are washed with PBS (80 g NaCl, 2g KCl (Sigma), 11.5 g Na2HPO4.7H2O and 2 g KH2PO4 in 10 L milliQ; pH 7.4) and blocked with 100 μL/well Casein buffer (2% Casein (VWR International) in PBS). Next day, casein buffer is removed from ELISA plates and replaced by 50 μL/well EC buffer (4 g casein, 2.13 g Na2HPO4 (Sigma), 2 g bovine albumin (Sigma), 0.69 g NaH2PO4.H2O (Sigma), 0.5 g CHAPS (Roche), 23.3 g NaCl, 4 mL 0.5 M EDTA pH 8 (Invitrogen), 5 mL 10% NaN3 in 1 L milliQ and adjusted to pH 7.0). 0.25 mM DTT (Sigma) is added to the thawed samples plates. After removal of the EC buffer, 20 μL of sample is transferred to the ELISA plates. […] Readout is performed on the Luminoscan Ascent Luminometer (Labsystems) with an integration time of 200 msec or with an Envision reader (Perkin Elmer). […]

[2] = Tolerability of compounds in healthy mice (total body weight); format: in vivo, DBA/1J mice; details: 100 mg/kg/d, po, up to two weeks
Protocol: This protocol is designed to assess the tolerability of the compounds of the invention in healthy DBA/1J mice to determine the “therapeutic window” as defined by the dosing range between efficacious (mouse therapeutic Collagen-Induced Arthritis model) and toxic doses.
DBA/1J […] mice are used (CERJ (France)), the mice are 10-11 weeks old, and have a body weight of approx 20g.
Compounds are prepared for a dosing regimen of 100 mg/kg/d, po, free base, in a standard volume of injection of 0.1 mL/10 g of mice (equivalent to 10 mg/1 mL). For solution preparations, compounds are dissolved in 0.5% methyl-cellulose and 1% DMSO supplemented with 1 molar equivalent of methanesulfonic acid to ensure full dissolution, once a week.
Groups are randomized based on body weight and treated for up to two weeks. Each group contained 5 mice and received either test compound at 100 mg/kg, a comparison compound at 100 mg/kg/d (Compound A) or vehicle on a daily basis in a dosing volume of 200 μL per mouse.
Potential drug toxicity is monitored by observation every day and by recording body weights three times a week for weight loss. All statistical analyses are performed using Student's t test.
To assess the general tolerability of the treatments, the total body weight is followed throughout the course of the study.

[3] = test system: Collagen-Induced Arthritis model; test: CIA model; format: in vivo, mouse; details: 3 or 30 mg/kg/d, daily for 14 days
Protocol: Complete Freund Adjuvant/Collagen II (CFA/Coll II, bovine) is injected (1 mg/mL, 100 μL per animal) into the tail (intradermic) at the start of the experiment. Incomplete Freund Adjuvant /Collagen II (IFA/Coll II) is injected into the tail at the same level (1 mg/mL, 100 μL per animal) 21 days after CFA/Coll II injection. Animals are then randomized based on score and assigned to treatment groups assuring an equal distribution of score in the different groups. Treatment with either the test compound (1 mg/kg/d, 3 mg/kg/d or 30 mg/kg/d), positive control (Enbrel, 10 mg/kg/3× week, ip) or vehicle (Methyl Cellulose, 1% DMSO) starts at day 8 post IFA/Coll II-boost (i.e. […] of the experiment). Animals are dosed daily with the test compound, positive control or vehicle for 14 days. The animals are scored daily for clinical symptoms, scoring is reported for the individual paws. During the treatment period the body weight of the animals is monitored. Bone protection is analysed by x-ray imaging.

CC(C)N1C[C@@H]2C[C@H]1CN2c1ccc(Nc2ncc(-c3coc(C(N)=O)c3)n3ncnc23)cc1 [Compound 1, 4-{8-[4-((1S,4S)-5-Isopropyl-2,5-diaza-bicyclo[2.2.1]hept-2-yl)-phenylamino]-[1,2,4]triazolo[1,5-a]pyrazin-5-yl}-furan-2-carboxamide]
pIC50 [1]: 6.00 to 7.00
weight of the animals compared to the vehicle [2]: no statistically significant difference
efficacy in CIA model [3]: efficacious
